From patent publication EP1409705B1, “A PROCESS FOR THE PRODUCTION OF AN INHIBITOR OF HUMAN PLATELET AGGREGATION AND SOYBEAN LIPOXYGENASE” (Council of Scientific and Industrial Research;an Indian …, priority 2001, dated 2002)

Experiments:
[1] = test system: human platelet aggregation; assay: human platelet aggregation inhibition; assay type: cell-based; conditions: purified inhibitor, red crystals, read-out: ic50 activity against human platelet aggregation
soybean lipoxygenase = molecular target: T1, soybean lipoxygenase (Glycine max, UniProt P08170); assay: soybean lipoxygenase inhibition; assay type: biochemical; conditions: purified inhibitor, red crystals; pH 9; read-out: ic50 activity against soybean lipoxygenase
T1 sequence (P08170 1-839): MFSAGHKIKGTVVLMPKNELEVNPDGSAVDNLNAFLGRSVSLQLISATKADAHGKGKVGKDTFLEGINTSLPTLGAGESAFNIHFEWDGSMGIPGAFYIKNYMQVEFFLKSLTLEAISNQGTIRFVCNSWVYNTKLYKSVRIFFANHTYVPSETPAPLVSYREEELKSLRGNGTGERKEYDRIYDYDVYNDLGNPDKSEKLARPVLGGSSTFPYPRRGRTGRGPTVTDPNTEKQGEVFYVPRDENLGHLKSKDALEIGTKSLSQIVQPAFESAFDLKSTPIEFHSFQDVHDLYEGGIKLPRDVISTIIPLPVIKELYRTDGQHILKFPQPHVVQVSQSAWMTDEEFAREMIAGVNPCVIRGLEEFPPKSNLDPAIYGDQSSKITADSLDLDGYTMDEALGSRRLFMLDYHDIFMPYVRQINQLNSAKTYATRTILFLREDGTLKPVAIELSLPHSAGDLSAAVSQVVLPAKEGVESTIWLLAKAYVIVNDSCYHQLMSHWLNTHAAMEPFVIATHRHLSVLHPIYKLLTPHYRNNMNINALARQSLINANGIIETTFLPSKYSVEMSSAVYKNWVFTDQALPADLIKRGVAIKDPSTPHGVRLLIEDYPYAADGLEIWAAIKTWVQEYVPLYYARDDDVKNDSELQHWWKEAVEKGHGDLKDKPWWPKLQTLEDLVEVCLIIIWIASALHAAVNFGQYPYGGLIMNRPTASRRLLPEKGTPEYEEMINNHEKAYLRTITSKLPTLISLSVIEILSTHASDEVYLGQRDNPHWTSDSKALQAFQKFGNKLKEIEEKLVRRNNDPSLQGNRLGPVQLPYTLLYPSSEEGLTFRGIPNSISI

[2] = solubility in organic solvents; assay type: physicochemical; conditions: in chloroform, dimethylsulfoxide, acetonitrile

- IC50 [1]: 234 µM
- IC50 (soybean lipoxygenase): 95.6 µM
- Solubility [2]: highly soluble
SMILES: CCC(=O)C=CC=CC(C)=CC=CC=Cc1ccccc1 [inhibitor, 8-methyl 13-phenyl trideca 4,6,8,10,12 pentene-3-one]
